Measured values: article PMC3779320, “Bub3 reads phosphorylated MELT repeats to promote spindle assembly checkpoint signaling” (eLife, 2013)
Square brackets hold non-standard residues; d marks the D form. Peptide text beside a SMILES is read from it. pT = C[C@@H](OP(=O)(O)O)[C@H](N)C(=O)O

Biological target: T1, Bub1^289–359–Bub3 (Saccharomyces cerevisiae, UniProt P26449+P41695)
T1 construct: S. cerevisiae Bub1^289–359 and for full length Bub3; GST (N, cleaved yes); made in house; host or cells: E. coli BL21 DE3 plysS
T1 sequence (P26449 1-341): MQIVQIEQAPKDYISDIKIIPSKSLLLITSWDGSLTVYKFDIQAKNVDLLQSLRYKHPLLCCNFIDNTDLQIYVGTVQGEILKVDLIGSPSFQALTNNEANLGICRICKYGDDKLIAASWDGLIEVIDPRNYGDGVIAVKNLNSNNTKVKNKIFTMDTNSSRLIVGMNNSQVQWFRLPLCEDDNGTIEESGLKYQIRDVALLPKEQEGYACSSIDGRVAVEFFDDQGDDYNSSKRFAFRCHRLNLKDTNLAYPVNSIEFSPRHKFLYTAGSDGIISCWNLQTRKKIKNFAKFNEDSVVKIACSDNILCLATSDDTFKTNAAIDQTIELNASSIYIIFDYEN
T1 sequence (P41695 289-359): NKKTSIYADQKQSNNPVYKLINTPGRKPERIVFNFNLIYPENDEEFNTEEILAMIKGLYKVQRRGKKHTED
Assay: ITC binding of MELT peptides to Bub1^289–359–Bub3 (wild type)
Details: 25°C, 20 mM Tris pH7.5, 150 mM NaCl, 1 mM DTE, complex 30 µM in cell, peptide 400 µM
Excerpt: We generated recombinant ScBub1^289–359–Bub3 (where the Bub1 segment is equivalent to the minimal kinetochore targeting region of human Bub1 [[Krenn et al., 2012]]) by bacterial co-expression and purified it to homogeneity (Figure 1D). To assess whether Bub1–Bub3 binds directly to MELT^P sequences, we tested its ability to bind MELT sequences in quantitative isothermal titration calorimetry (ITC) binding experiments. 19-residue synthetic peptides encompassing the sequences of the second and fourth MELT^P motifs of Spc105/Knl1 (indicated as MELT2 and MELT4, respectively), each flanked by four and eleven residues on the N- and C-terminal ends, respectively, were tested (Figure 1C). […] Thus, ScBub1^289–359–Bub3 is sufficient for the reconstitution of tight interactions with two MELT^P peptides in vitro that recapitulate a salient feature of this interaction, its dependency on phosphorylation.
cDNA sequences coding for S. cerevisiae Bub1^289–359 and for full length Bub3 were subcloned in the first and second cassettes of pGEX-6P-2rbs vector ([Ciferri et al., 2005]). In this construct, the cDNA encoding Bub1^289–359 was sub-cloned in frame with the gene encoding GST and a cleavage site for PreScission protease, and was translated from the first ribosome-binding site (rbs). Untagged Bub3 was subcloned downstream of the second rbs in the same vector. Expression was carried out in BL21 DE3 plysS cells in LB medium by auto-induction with 0.3% lactose at 18°C for approximately 16 hr. Cells were harvested by centrifugation and resuspended in Buffer A (20 mM Tris pH 7.5, 300 mM NaCl, 10% Glycerol, 1 mM DTE, 1 mM EDTA pH 8.0, 1 mM PMSF) typically at a dilution of 3 ml lysis buffer per ml of bacterial pellet. Cells were lysed by sonication, and the lysates were cleared by centrifugation at 75000 × g for 45 min. The resulting clear supernatant was incubated with gentle rotation with 1/50 (vol/vol) of GSH-sepharose slurry (GE Healthcare) for 1–2 hr at 4°C. Beads were washed with 150 vol of Buffer A. To elute the Bub1–Bub3 complex from beads, GST-PreScission protease (0.02 mg/mg of protein target) was added for 16 hr at 4°C. The eluate was concentrated on Amicon Ultra Centrifugal Filters MwCO 3000 (Merck Millipore, Billerica, MA) and further purified by size exclusion chromatography (SEC) on a Superdex 75 16/60 column using GF buffer (20 mM Tris pH 7.5, 150 mM NaCl, 1 mM DTE). The complex eluted in a single peak with apparently stoichiometric amounts of Bub1^289–359 and Bub3 and was subsequently concentrated to ∼10 mg/ml for crystallization or to 2–4 mg/ml for ITC experiments. […]
Binding isotherm was measured at 25°C by isothermal titration calorimetry on a MicroCal ITC200 device (GE Healthcare, Piscataway, NJ). […]

CC[C@H](C)[C@H](NC(=O)[C@H](CO)NC(=O)[C@H](CCCNC(=N)N)NC(=O)[C@@H]1CCCN1C(=O)[C@H](Cc1ccccc1)NC(=O)[C@@H](NC(=O)[C@H](CCC(=O)O)NC(=O)[C@@H](NC(=O)[C@H](CCSC)NC(=O)[C@H](CCC(=O)O)NC(=O)[C@H](CCSC)NC(=O)[C@H](CO)NC(=O)[C@@H](NC(=O)[C@@H]1CCCN1C(=O)[C@H](CC(=O)O)NC(C)=O)[C@@H](C)O)[C@@H](C)OP(=O)(O)O)C(C)C)C(=O)N[C@@H](CCCNC(=N)N)C(=O)N[C@@H](CCC(N)=O)C(=O)N[C@@H](CCCCN)C(=O)N[C@@H](CC(N)=O)C(N)=O [MELT2^P] (Ac-DPTSMEM[pT]EVFPRSIRQKN-NH2; N-terminus and C-terminus assumed)
binding (in words): no binding
